Target: T1, HIV-1 protease (Human immunodeficiency virus type 1 group M subtype B, UniProt P04585)
T1 construct: The protease (or proteinase), consisting of only 99 amino acids, is among the smallest enzymes known
Assay: In vitro HIV protease inhibitory assay (HIV Protease FITC Assay)
Type: biochemical
Settings: for inhibition at 0.123 µM: HIV-1 Dose 0.123 uM; for inhibition at 0.123 µM / inhibition at 0.37 µM / inhibition at 1.1 µM / inhibition at 3.3 µM / inhibition at 10 µM / inhibition at 30 µM / inhibition at 100 µM: read-out: HIV-1 Protease % Inhib; for inhibition at 0.37 µM: HIV-1 Dose 0.370 uM; for inhibition at 1.1 µM: HIV-1 Dose 1.100 uM; for inhibition at 3.3 µM: HIV-1 Dose 3.300 uM; for inhibition at 10 µM: HIV-1 Dose 10.000 uM; for inhibition at 30 µM: HIV-1 Dose 30.000 uM; for inhibition at 100 µM: HIV-1 Dose 100.000 uM; for Ki: read-out: HIV-1 FITC Ki
Method in brief: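 Percent inhibition was read as fluorescence after avidin-bead capture and filtration separated FITC cleavage product from biotinylated substrate. Enzyme and substrate reacted 1 h, RT, dark, at pH 5.5 (0.1 M sodium acetate, 1.0 M NaCl, 0.05% NP-40).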

| SMILES | inhibition at 0.123 µM [%] | inhibition at 0.37 µM [%] | inhibition at 1.1 µM [%] | inhibition at 3.3 µM [%] | inhibition at 10 µM [%] | inhibition at 30 µM [%] | inhibition at 100 µM [%] | Ki [nM] |
| --- | --- | --- | --- | --- | --- | --- | --- | --- |
| O=c1oc(CC(O)c2cccc(Cl)c2)cc(O)c1C(c1ccccc1)C1CC1 (stereo not drawn) [Example 150, 3-(α-cyclopropylbenzyl)-4-hydroxy-6-(β-hydroxy-m-chlorophenethyl)-2H-pyran-2-one] | < 10 | 13.3 | 25.4 | 54.1 | 75.2 | 91 | 113 |  |
| O=c1oc(CC(O)c2ccccc2Cl)cc(O)c1C(c1ccccc1)C1CC1 (stereo not drawn) [Example 151, 3-(α-cyclopropylbenzyl)-4-hydroxy-6-(β-hydroxy-o-chlorophenethyl)-2H-pyran-2-one] | < 10 | < 10 | 19.1 | 39.8 | 70.1 | 88.4 | 113 |  |
| O=c1oc(CC(O)c2ccoc2)cc(O)c1C(c1ccccc1)C1CC1 (stereo not drawn) [Example 152, 3-(α-cyclopropylbenzyl)-4-hydroxy-6-(2-(furan-3-yl)-2-hydroxyethyl)-2H-pyran-2-one] | < 10 | < 10 | 26.4 | 48.8 | 77.6 | 90.5 | 110 |  |
| O=c1oc(CC(O)c2ccsc2)cc(O)c1C(c1ccccc1)C1CC1 (stereo not drawn) [Example 153, 3-(α-cyclopropylbenzyl)-4-hydroxy-6-(2-(thiophen-3-yl)-2-hydroxyethyl)-2H-pyran-2-one] | < 10 | 17.7 | 40.3 | 69 | 88.6 | 99.7 | 120 |  |
| CCC(Cc1ccc(F)cc1)c1cc(O)c(C(c2ccccc2)C2CC2)c(=O)o1 (stereo not drawn) [Example 154, 3-(α-cyclopropylbenzyl)-4-hydroxy-6-(α-ethyl-p-flurorphenethyl)-2H-pyran-2-one] | 21.9 | 57.3 | 84.1 | 86.7 | 98.1 | 92.9 |  | 39 |
| CCC(Cc1ccc(Cl)cc1)c1cc(O)c(C(c2ccccc2)C2CC2)c(=O)o1 (stereo not drawn) [Example 155, 3-(α-cyclopropylbenzyl)-4-hydroxy-6-(α-ethyl-p-chlorophenethyl)-2H-pyran-2-one] | 27.6 | 46 | 79.9 | 92.8 | 97.2 | 93.5 | 111 | 66 |
| CCC(Cc1cccc(Cl)c1)c1cc(O)c(C(c2ccccc2)C2CC2)c(=O)o1 (stereo not drawn) [Example 156, 3-(α-cyclopropylbenzyl)-4-hydroxy-6-(α-ethyl-m-chlorophenethyl)-2H-pyran-2-one] | < 10 | 24.2 | 64.4 | 82.6 | 87.3 | 92.3 |  | 65 |
| CCC(Cc1ccccc1Cl)c1cc(O)c(C(c2ccccc2)C2CC2)c(=O)o1 (stereo not drawn) [Example 157, 3-(α-cyclopropylbenzyl)-4-hydroxy-6-(α-ethyl-o-chlorophenethyl)-2H-pyran-2-one] | < 10 | 17.6 | 42.2 | 69 | 83.5 | 84.9 |  |  |
| CCC(Cc1ccc(Br)cc1)c1cc(O)c(C(c2ccccc2)C2CC2)c(=O)o1 (stereo not drawn) [Example 158, 3-(α-cyclopropylbenzyl)-4-hydroxy-6-(α-ethyl-p-bromophenethyl)-2H-pyran-2-one] | 15.7 | 44.2 | 70.5 | 87 | 100 | 96.1 | 115 | 55 |
